Results on 29 compounds are retold here after US20180243298A1, “TRPV3 MODULATORS” (AbbVie Inc., priority 2015, published 2018).

In the test the target is T1, human TRPV3 (Homo sapiens, UniProt Q8NET8).
T1 construct: expressed in transfected cells; host or cells: HEK293
T1 sequence (Q8NET8 1-790): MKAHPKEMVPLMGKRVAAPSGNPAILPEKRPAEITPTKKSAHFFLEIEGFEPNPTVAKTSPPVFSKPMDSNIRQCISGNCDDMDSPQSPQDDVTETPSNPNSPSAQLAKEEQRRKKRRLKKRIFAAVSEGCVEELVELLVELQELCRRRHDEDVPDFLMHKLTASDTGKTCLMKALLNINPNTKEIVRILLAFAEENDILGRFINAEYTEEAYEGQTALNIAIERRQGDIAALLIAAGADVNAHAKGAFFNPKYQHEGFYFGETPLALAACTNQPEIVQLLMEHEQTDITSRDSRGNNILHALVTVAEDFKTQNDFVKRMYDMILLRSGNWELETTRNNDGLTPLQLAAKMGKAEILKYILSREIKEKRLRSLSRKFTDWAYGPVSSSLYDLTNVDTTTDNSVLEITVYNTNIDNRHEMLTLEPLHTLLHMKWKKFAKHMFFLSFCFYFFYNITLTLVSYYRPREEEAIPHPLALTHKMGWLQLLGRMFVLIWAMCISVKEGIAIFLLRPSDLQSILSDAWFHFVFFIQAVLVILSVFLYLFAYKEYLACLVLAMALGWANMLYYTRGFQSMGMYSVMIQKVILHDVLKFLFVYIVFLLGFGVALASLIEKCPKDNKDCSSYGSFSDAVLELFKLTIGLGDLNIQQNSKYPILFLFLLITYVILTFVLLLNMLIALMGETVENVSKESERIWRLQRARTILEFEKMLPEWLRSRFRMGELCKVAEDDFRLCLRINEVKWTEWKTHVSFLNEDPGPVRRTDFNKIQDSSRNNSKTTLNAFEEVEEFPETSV
Briefly: Calcium flux assay (FLIPR TETRA), recombinant HEK293 cells expressing TRPV3, 2-APB response. It is filed as cell-based. To be noted: 2-APB at its EC80. The essentials:
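Response is the peak fluorescence increase over baseline, as a percentage of the compound-free response to 2-APB at EC80. Calcium flux recorded on FLIPR TETRA in stable human or mouse TRPV3 HEK293 cells after 90–120 min Calcium-4 dye loading.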
(Calcium flux is commonly read through the fluorescence of an indicator in the cells.)
For orientation: IC50 means the concentration that inhibits the measured activity by half. In the case of `COc1ncnc(OC)c1C(=O)Nc1nc(C(F)(F)F)c(C2(O)CCC2)s1` [Example 119, N-[5-(1-hydroxycyclobutyl)-4-(trifluoromethyl)-1,3-thiazol-2-yl]-4,6-dimethoxypyrimidine-5-carboxamide], the IC50 was over 1000 nM.
The figure for `COc1ncnc(OC)c1C(=O)Nc1nc(C(F)(F)F)c(C(O)c2ccccc2)s1` (centres unmarked) [Example 120, N-{5-[hydroxy(phenyl)methyl]-4-(trifluoromethyl)-1,3-thiazol-2-yl}-4,6-dimethoxypyrimidine-5-carboxamide] is 100 to 500 nM; for `COc1ncnc(OC)c1C(=O)Nc1nc(C(F)(F)F)c(C(=O)c2ccccc2)s1` [Example 121, N-[5-benzoyl-4-(trifluoromethyl)-1,3-thiazol-2-yl]-4,6-dimethoxypyrimidine-5-carboxamide] it is 50 to 100 nM; for `COc1ncnc(OC)c1C(=O)Nc1nc(C(F)(F)F)c(C(C)(O)c2ccccc2)s1` (centres unmarked) [Example 122, N-[5-(1-hydroxy-1-phenylethyl)-4-(trifluoromethyl)-1,3-thiazol-2-yl]-4,6-dimethoxypyrimidine-5-carboxamide] it is under 50 nM.
`COc1ncnc(OC)c1C(=O)Nc1nc(C(F)(F)F)c(C(O)C(C)(C)C)s1` (centres unmarked) [Example 123, N-[5-(1-hydroxy-2,2-dimethylpropyl)-4-(trifluoromethyl)-1,3-thiazol-2-yl]-4,6-dimethoxypyrimidine-5-carboxamide]: the IC50 lay in the range of 100 to 500 nM.
On to `COc1ncnc(OC)c1C(=O)Nc1nc(C(F)(F)F)c(C(=O)C(C)(C)C)s1` [Example 124, N-[5-(2,2-dimethylpropanoyl)-4-(trifluoromethyl)-1,3-thiazol-2-yl]-4,6-dimethoxypyrimidine-5-carboxamide], for which the IC50 was under 50 nM.
The figure for `CO/N=C(\c1ccccc1)c1sc(NC(=O)c2c(OC)ncnc2OC)nc1C(F)(F)F` [Example 125, 4,6-dimethoxy-N-{5-[(E)-(methoxyimino)(phenyl)methyl]-4-(trifluoromethyl)-1,3-thiazol-2-yl}pyrimidine-5-carboxamide] is under 50 nM; for `COc1ncnc(OC)c1C(=O)Nc1nc(C(F)(F)F)c(/C(=N/O)c2ccccc2)s1` [Example 126, N-{5-[(E)-(hydroxyimino)(phenyl)methyl]-4-(trifluoromethyl)-1,3-thiazol-2-yl}-4,6-dimethoxypyrimidine-5-carboxamide] it is under 50 nM.
Turning to `COc1ncnc(OC)c1C(=O)Nc1nc(C(F)(F)F)c(C(=O)c2ccccn2)s1` [Example 127, 4,6-dimethoxy-N-[5-(pyridin-2-ylcarbonyl)-4-(trifluoromethyl)-1,3-thiazol-2-yl]pyrimidine-5-carboxamide], the IC50 is over 1000 nM.
The value for `COc1ncnc(OC)c1C(=O)Nc1nc(C(F)(F)F)c(/C(=N/O)c2ccccn2)s1` [Example 128, N-{5-[(E)-(hydroxyimino)(pyridin-2-yl)methyl]-4-(trifluoromethyl)-1,3-thiazol-2-yl}-4,6-dimethoxypyrimidine-5-carboxamide] was 100 to 500 nM; that for `COc1ncnc(OC)c1C(=O)Nc1nc(C(F)(F)F)c(C(C)(O)c2ccccn2)s1` (centres unmarked) [Example 129, N-{5-[1-hydroxy-1-(pyridin-2-yl)ethyl]-4-(trifluoromethyl)-1,3-thiazol-2-yl}-4,6-dimethoxypyrimidine-5-carboxamide] was over 1000 nM.
With `COc1ncnc(OC)c1C(=O)Nc1nc(C(F)(F)F)c(C(O)c2ccc(F)cn2)s1` (centres unmarked) [Example 130, N-{5-[(5-fluoropyridin-2-yl)(hydroxy)methyl]-4-(trifluoromethyl)-1,3-thiazol-2-yl}-4,6-dimethoxypyrimidine-5-carboxamide], the IC50 is 100 to 500 nM.
Regarding `COc1ncnc(OC)c1C(=O)Nc1nc(C(F)(F)F)c(C(=O)c2ccc(F)cn2)s1` [Example 131, N-{5-[(5-fluoropyridin-2-yl)carbonyl]-4-(trifluoromethyl)-1,3-thiazol-2-yl}-4,6-dimethoxypyrimidine-5-carboxamide], the IC50 was under 50 nM.
The figure for `COc1ncnc(OC)c1C(=O)Nc1nc(C(F)(F)F)c(/C(=N/O)c2ccc(F)cn2)s1` [Example 132, N-{5-[(E)-(5-fluoropyridin-2-yl)(hydroxyimino)methyl]-4-(trifluoromethyl)-1,3-thiazol-2-yl}-4,6-dimethoxypyrimidine-5-carboxamide] is under 50 nM; for `COc1ncnc(OC)c1C(=O)Nc1nc(C(F)(F)F)c(C(C)=O)s1` [Example 133, N-[5-acetyl-4-(trifluoromethyl)-1,3-thiazol-2-yl]-4,6-dimethoxypyrimidine-5-carboxamide] it is 100 to 500 nM; for `COc1ncnc(OC)c1C(=O)Nc1nc(C(F)(F)F)c(/C(C)=N/O)s1` [Example 134, N-{5-[(1E)-N-hydroxyethanimidoyl]-4-(trifluoromethyl)-1,3-thiazol-2-yl}-4,6-dimethoxypyrimidine-5-carboxamide] it is 100 to 500 nM.
The figure for `CO/N=C(\C)c1sc(NC(=O)c2c(OC)ncnc2OC)nc1C(F)(F)F` [Example 135, 4,6-dimethoxy-N-{5-[(1E)-N-methoxyethanimidoyl]-4-(trifluoromethyl)-1,3-thiazol-2-yl}pyrimidine-5-carboxamide] is under 50 nM; for `CO/N=C(/C)c1sc(NC(=O)c2c(OC)ncnc2OC)nc1C(F)(F)F` [Example 136, 4,6-dimethoxy-N-{5-[(1Z)—N-methoxyethanimidoyl]-4-(trifluoromethyl)-1,3-thiazol-2-yl}pyrimidine-5-carboxamide] it is under 50 nM; for `COc1ncnc(OC)c1C(=O)Nc1nc(C(F)(F)F)c(C2(C)OCCO2)s1` [Example 137, 4,6-dimethoxy-N-[5-(2-methyl-1,3-dioxolan-2-yl)-4-(trifluoromethyl)-1,3-thiazol-2-yl]pyrimidine-5-carboxamide] it is 50 to 100 nM.
The value for `COc1ncnc(OC)c1C(=O)Nc1nc(C(F)(F)F)c(C2OCCO2)s1` [Example 138, N-[5-(1,3-dioxolan-2-yl)-4-(trifluoromethyl)-1,3-thiazol-2-yl]-4,6-dimethoxypyrimidine-5-carboxamide] was 100 to 500 nM; that for `COc1ncnc(OC)c1C(=O)Nc1nc(C(F)(F)F)c(C2OCCCO2)s1` [Example 139, N-[5-(1,3-dioxan-2-yl)-4-(trifluoromethyl)-1,3-thiazol-2-yl]-4,6-dimethoxypyrimidine-5-carboxamide] was 100 to 500 nM.
For `COc1ncnc(OC)c1C(=O)Nc1nc(C(F)(F)F)c(-c2cnco2)s1` [Example 140, 4,6-dimethoxy-N-[5-(1,3-oxazol-5-yl)-4-(trifluoromethyl)-1,3-thiazol-2-yl]pyrimidine-5-carboxamide], the IC50 lay within 50 to 100 nM.
The value for `COc1ncnc(OC)c1C(=O)Nc1nc(C(F)(F)F)c(-c2ocnc2C)s1` [Example 141, 4,6-dimethoxy-N-[5-(4-methyl-1,3-oxazol-5-yl)-4-(trifluoromethyl)-1,3-thiazol-2-yl]pyrimidine-5-carboxamide] was 50 to 100 nM; that for `CCn1nccc1-c1sc(NC(=O)c2c(OC)ncnc2OC)nc1C(F)(F)F` [Example 142, N-[5-(1-ethyl-1H-pyrazol-5-yl)-4-(trifluoromethyl)-1,3-thiazol-2-yl]-4,6-dimethoxypyrimidine-5-carboxamide] was 100 to 500 nM.
As to `COc1ncnc(OC)c1C(=O)Nc1nc(C(F)(F)F)c(C2=CCCO2)s1` [Example 143, N-[5-(4,5-dihydrofuran-2-yl)-4-(trifluoromethyl)-1,3-thiazol-2-yl]-4,6-dimethoxypyrimidine-5-carboxamide], the IC50 was under 50 nM.
The value for `COc1ncnc(OC)c1C(=O)Nc1nc(C(F)(F)F)c(C2CCCO2)s1` (centres unmarked) [Example 144, 4,6-dimethoxy-N-[5-(tetrahydrofuran-2-yl)-4-(trifluoromethyl)-1,3-thiazol-2-yl]pyrimidine-5-carboxamide] was 50 to 100 nM; that for `COc1ncnc(OC)c1C(=O)Nc1nc(C(F)(F)F)c(C2=COCC2)s1` [Example 145, N-(5-(4,5-dihydrofuran-3-yl)-4-(trifluoromethyl)thiazol-2-yl)-4,6-dimethoxypyrimidine-5-carboxamide] was under 50 nM; that for `COc1ncnc(OC)c1C(=O)Nc1nc(C(F)(F)F)c(C2CCOC2)s1` (centres unmarked) [Example 146, 4,6-dimethoxy-N-[5-(tetrahydrofuran-3-yl)-4-(trifluoromethyl)-1,3-thiazol-2-yl]pyrimidine-5-carboxamide] was 100 to 500 nM.
For the compound `COc1ncnc(OC)c1C(=O)Nc1nc(C(F)(F)F)c(C2=COCCC2)s1` [Example 147, N-[5-(3,4-dihydro-2H-pyran-5-yl)-4-(trifluoromethyl)-1,3-thiazol-2-yl]-4,6-dimethoxypyrimidine-5-carboxamide], the IC50 was in the range of 50 to 100 nM.
